Data from PMC7848861 (Frontiers in Microbiology, 2021).
Peptide text beside a SMILES is read from it.

Key:
[1] = test system: primary human macrophages; assay: Toxicity of peptides against macrophages (PrestoBlue); type: cell-based; settings: three independent experiments
Protocol: Human peripheral blood mononuclear cells (PBMC) were isolated by density gradient centrifugation (Ficoll-Paque™ Plus; GE Healthcare) of buffy coat preparations from anonymous donors (Institute of Transfusion Medicine, Ulm University). Monocytes were isolated from PBMCs by adherence on tissue culture treated plastic flasks (Falcon, Corning, NY, United States). Monocyte-derived macrophages were generated by incubation with granulocyte-macrophage colony-stimulating factor (10 ng/ml; Miltenyi Biotec, Bergisch Gladbach, Germany) in Macrophage-Serum Free Medium (M-SFM; Gibco, ThermoFisher Scientific, Schwerte, Germany) for 6 days.
About 1 × 10^5 macrophages were incubated with peptides for 18 h in a 96-well plate, followed by addition of 10% PrestoBlue™ (Thermo Fisher) for 20 min. The non-fluorescent resazurin-based PrestoBlue is reduced to fluorescent resorufin by mitochondrial enzymes of viable cells ([Xu et al., 2015]). The fluorescence intensity (FI) was measured at λex 560 nm and λem 600 nm using Infinite 200 PRO (Tecan, Männedorf, Suisse) plate reader. Cell viability (%) was calculated using the following formula where the ratio of the FIs of the sample and the untreated control is calculated after subtracting the background FI introduced by the same volume of cell culture medium: [FI (sample)-FI (background)]/[FI (untreated control)-FI (background)] × 100.

[2] = Half-life of Angie1 in human serum; type: in vitro ADME; settings: human serum (Lonza 14-490E) spiked with 10 μM, 37°C, aliquots 5–120 min, LC-MS (Orbitrap Elite) signal area, triplicates, GraphPad Prism
Protocol: Human serum (14-490E, Lonza, Basel, Switzerland) was spiked with 10 μM Angie1 and incubated at 37°C for 2 h in triplicates. After 5, 10, 20, 30, 45, 60, 90, and 120 min; aliquots (5 μl) were diluted with 1.5 ml ice cold TFA (0.1%). Around 15 μl of each sample was analyzed using an Orbitrap Elite system (Thermo Fisher Scientific) as described above. XCalibur Qual Browser (Thermo Fisher Scientific) was used for visualization of the total ion chromatograms and spectra, as well as for signal area calculation. The theoretical spectrum of Angie1 and its degradation products were generated and the highest intensity signals were used as reference for detecting Angie1 and its degradation products. Plot graphs (signal area vs. time) and half-lives were calculated with GraphPad Prism 8.0 (GraphPad, La Jolla, CA, United States).

[3] = test system: zebrafish embryos; assay: Toxicity against zebrafish embryos; type: in vivo; settings: 1, 10, and 100 μM, exposure 24 h from 24 hpf, scored at 48 hpf, n = 60 embryos each group
Protocol: Wild-type zebrafish embryos were dechorionated at 24 h post fertilization (hpf) using digestion with 1 mg/ml pronase (Sigma) in E3 medium (83 μM NaCl, 2.8 μM KCl, 5.5 μM CaCl2, and 5.5 μM MgSO4). Embryos were exposed for 24 h, in groups of three, to 100 μl of E3 medium containing Angie1 at 1, 10, and 100 μM. Each concentration was tested in two independent assays, each of which was performed on 10 × 3 embryos. The peptide solvent (PBS), diluted in E3, was used as negative control at the same amount as introduced by the highest peptide concentration. As positive control for acute toxicity/cytotoxicity the pleurocidin antimicrobial peptide NRC-03 ([…]-[…]-NH2) was used at a concentration of 6 μM as described ([Morash et al., 2011]). Abamectin at a concentration of 3.125 μM was used as positive control for neurotoxicity ([Raftery et al., 2014]). At 48 hpf (after 24 h of incubation) embryos were scored in a stereomicroscope for signs of acute toxicity/cytotoxicity (lysis and/or necrosis), developmental toxicity (delay and/or malformations), or cardiotoxicity (heart edema and/or reduced or absent circulation). Each embryo was also touched with a needle and reduced or absent touch response (escape movements) was evaluated as signs of neurotoxicity if and only if no signs of acute toxicity were present in the same embryo. […]

[4] = test system: human macrophages; assay: Uptake by macrophages (flow cytometry, confocal laser microscopy); type: cell-based; settings: Atto647N-labeled peptide, 54 μM, 18 h, alone or incorporated into liposomes; flow cytometry and confocal microscopy, three donors
Protocol: For investigation of Angie1 internalization, 1 × 10^6 macrophages were incubated with Angie1-Atto647N or Angie1-Atto647N Lip for 18 h. Samples were then analyzed using a FACS Calibur (BD Biosciences) with FlowJo v10.4.1 (BD). For confocal laser microscopy, 0.1 × 10^6 macrophages were seeded in 200 μl M-SFM in an eight-chamber slide (Thermo Fisher) and incubated with Angie1-Atto 647 N (54 μM) or Angie1-Atto 647 N Lip (54 μM) or Angiogenin-Atto647N Lip. After overnight incubation, cells were fixed (4% PFA, Sigma-Aldrich), followed by blocking in 2% BSA. Subsequently macrophages were labeled with major histocompatibility antigen class II antibodies (HLA-DR; 1:200, clone L243, Leinco, St. Louis, MS, United States) detected by Cy2-conjugated goat anti-mouse antibodies (1:200, Dianova, Hamburg, Germany). Cell nuclei were stained with DAPI (1:200, Sigma-Aldrich) diluted in 1% BSA and 0.1% Triton X-100 in PBS (all Sigma-Aldrich). Images were acquired using the inverted laser scanning confocal microscope LSM 710 (Zeiss, Oberkochen, Germany). Image processing was performed using ImageJ software (v 1.52c).

[5] = Solubility in water; type: physicochemical
[6] = test system: Mycobacterium tuberculosis H37Rv (extracellular Mtb); type: cell-based; settings: 100 μM peptide; 2 × 10^6 Mtb, 96 h incubation, 3H-Uracil uptake vs untreated control; mean ± SD, triplicates of three independent experiments
[7] = test system: intracellular Mtb in primary human macrophages; type: cell-based, Mycobacterium tuberculosis; settings: 10 μM, 4 days, MOI 5, CFU on 7H11 after 21 days; diluent control 9.5-fold; p < 0.05; six donors
[8] = test system: primary human monocytes or macrophages; assay: Chemotaxis or cytokine release by monocytes or macrophages (not shown); type: cell-based; settings: data not shown

Compound | Toxicity for primary human macrophages ([1]; Angie1 at 27, 54, or 108 μM, PrestoBlue, 24 h) | Half-life in human serum [2] [min] | half-life at 10 μM [2] [min] | Toxicity to zebrafish embryos (acute/cyto-, cardio-, developmental, neurotoxicity) [3] | Uptake by macrophages [4] | Solubility in water [5] | Antimicrobial activity against extracellular Mtb [6] [%] | Viability of macrophages ([1]; Angiogenin 10 μM, 18 h (legend: 24 h), PrestoBlue resazurin metabolism) | Multiplication of intracellular Mtb (n-fold growth d4 vs d0) [7] [fold] | Induction of chemotaxis or cytokine release [8]
CC[C@H](C)[C@H](NC(=O)[C@H](C)NC(=O)[C@H](CCCCN)NC(=O)[C@@H](NC(=O)[C@H](CO)NC(=O)[C@@H](NC(=O)[C@H](CCCCN)NC(=O)[C@H](CC(N)=O)NC(=O)CNC(=O)[C@H](Cc1c[nH]cn1)NC(=O)[C@@H](NC(=O)[C@H](Cc1ccccc1)NC(=O)[C@@H](NC(=O)[C@H](CC(N)=O)NC(=O)[C@@H](NC(=O)[C@H](C)NC(=O)[C@@H](N)CCCCN)[C@@H](C)CC)[C@@H](C)O)[C@@H](C)CC)[C@@H](C)CC)[C@@H](C)CC)C(=O)O [Angie1] (H-KAINTFIHGNKISIKAI-OH) | not toxic | 3 | 3.06 | no toxicity | equally efficient | soluble in water | – | – | – | –
Angiogenin: endogenous 123 amino acid, 14.1 kDa protein identified in hemofiltrate; tested as synthetic Angiogenin | – | – | – | – | – | – | 94 ± 2 | did not affect the viability | 5.2 | do not induce chemotaxis or cytokine release
